The results in this text go back to patent US11833256B2, “Selective RARγ ligand-loaded nanoparticles for manipulation of targeted bone growth” (University Of Maryland, Baltimore, priority 2017, dated 2023).

Experiment [1] has as its system BMP signaling (phosphorylated Smad1/5, p38, Erk1/2). The experiment is described as follows: Immunoblotting of phosphorylated Smad1/5, p38 and Erk1/2 in ATDC5 cells / primary chondrocytes. The experiment is classed as cell-based, mouse. Conditions: in the presence of 10 ng/mL rhBMP-2; each dose tested. The procedure:
ATDC5 cells were grown until approximately 70% confluence in Dulbecco's modified Eagle's medium/Ham's nutrient mixture F-12 containing 5% fetal bovine serum (FBS). After serum deprivation (0.3% FBS) for 16 hours, cultures were treated with rhBMP-2 and/or retinoids for 60 minutes and then lysed in SDS-PAGE sample buffer. Cell lysates were denatured, separated onto 10% SDS-page gels and transferred to PVDF membranes (Millipore™, USA). Membranes were incubated overnight at 4° C. with antibodies against phospho-Smad1/5 (Cell Signaling Technology™, 9516, 1:1000), phospho-Smad1/5/8 (Cell Signaling Technology™, 9511, 1:1000), phospho-Erk1/2 (Cell Signaling Technology™, 4370, 1:500), or phospho-p38 (Cell Signaling Technology™, 4511, 1:500), followed by incubation with horseradish peroxidase (HRP)-conjugated secondary antibody (Cell Signaling Technology™, 7074, 1:2000). HRP activity was detected using a SuperSignal™ West Dura Extended Duration Substrate (Thermo Scientific™, USA). Membranes were re-blotted with antibodies against GAPDH (Santa Cruz Biotechnology™, sc-32233, 1:1000) for loading normalization.
RARγ was examined for whether it has cell-autonomous roles on BMP signaling in chondrocytes. […] Levels of phosphorylated Smad1/5, p38 and Erk1/2 were analyzed by immunoblotting. […]
A general note: A western blot detects proteins with antibodies after separation by electrophoresis.

For experiment [2], the system named is ectopic endochondral bone formation in BMP-Matrigel. Nature of the experiment: Ectopic bone formation model (rhBMP-2-containing Matrigel injected subcutaneously). The experiment is classed as in vivo, mouse. Conditions: for biological activities in an ectopic bone formation model: mouse, in vivo; for ectopic bone formation (μCT, BV/TV): oral gavage on day 3, 5 and 7, ectopic masses collected day 12, vs vehicle. How it is done:
Ectopic bone formation was induced in mice according to known methods. See Shimono et al., J. Orthop. Res. 28(2):271-277, 2010. Briefly, recombinant human bone morphogenetic protein-2 (rhBMP-2; Gene Script™ Corp., Piscataway, NJ) was added to growth-factor reduced Matrigel™ (BD Bioscience™, Inc., Franklin Lakes, NJ) on ice to a final concentration of 4 µg/mL. Two hundred fifty 250 μL, rhBMP-2-containing Matrigel™ was injected into the left and right subcutaneous abdominal region of 2-month-old CD-1 female mice. Ectopic tissue samples were harvested and subjected to μCT and histological analyses.
After fixation, samples were subjected to μCT analysis using a CT35 scanner (SCANCO USA™ Inc., Southeastern, PA) at 55 kV and […] for bone volume/tissue volume (BV/TV) analysis. Normalized BV/TV means were calculated by ratios of experimental versus control values.
To further evaluate the roles of RARγ and the efficacy of RARγ antagonists on bone formation, the effects of three selective RARγ antagonists were compared with the RARγ agonist, NRX204647, using a mouse ectopic bone model. Recombinant human BMP-2 containing Matrigel™ (BMPMatrigel) was transplanted subcutaneously in the abdomens of CD-1 female mice (ectopic bone formation model). The injected BMP-Matrigel™ mixture rapidly solidified and developed endochondral bone within 10 to 12 days (see FIG. 13B).
The BMP-Matrigel™ injected mice were randomly subdivided into groups and subjected to oral gavage with vehicle corn oil, RARγ agonist or each of the 3 antagonists on day 3, 5 and 7 (see structures in FIG. 13A). The control mouse with vehicle treatment had inductive masses in the Matrigel™-injected sites (see FIG. 13B). Ectopic tissue masses were collected on day 12 and subjected to X-ray and μCT analyses. Micro-CT images of pellets harvested 12 days after implantation were taken. FIG. 13C.
Mice with Matrigel™ Pellets as described above were administered vehicle or 4 mg/kg CD2665 on day 3, 5 and 7 after BMP2-Matrigel™ transplantation by gavage, and then analyzed on Day 7 or Day 12. FIG. 14A. Separately, a second group of mice were administered vehicle or 4 mg/kg CD2665 on day 7, 9 and 11 after BMP2-Matrigel transplantation and analyzed either on day 12 or 17. Pellets were collected at the indicated time, fixed and subjected to μCT analysis (bottom row). Pellets were then sectioned and stained with Alcian blue for quantitation of cartilage (top row).
Samples were first subjected to μCT analysis and were then sectioned and stained with Alcian blue for quantification of cartilage. For each group, 3 sections each (1 mm interval of 4 independent samples) were analyzed. […] For the experiments shown in FIG. 15A, mice were administered vehicle or 4 mg/kg of CD2665 by gavage on day 3, 5 and 7 from BMP-Matrigel™ implantation and samples were collected on day 7 or 12.
To examine these later stages more closely, mice implanted with BMP-Matrigel™ were treated with a RARγ antagonist on day 7, 9 and 11, and the ectopic tissue masses were analyzed on day 12 or 17 (FIG. 15B). […] The findings reaffirm that RARγ antagonists enhance cartilage formation during the middle stages of endochondral ossification and eventually lead to increases in bone formation. For experiments in FIG. 15B, mice were administered vehicle or 4 mg/kg CD2665 by gavage on day 7, 9 and 11 from implantation and analyzed on day 12 or 17. […]
Subcutaneous transplantation of rhBMP-2 containing Matrigel™ (BMP-Matrigel™) pellets in the abdomens of 2-month-old CD-1 female mice was performed. On day 3 and 10, 5 μl of empty NP or 7c-loaded NP (7c-NP: 3.5 μg in 5 μl) were injected around the Matrigel™ pellets. Ectopic bone tissue was corrected on day 15 and subjected to μCT analysis.

Setting [3] is: 4 mg/kg gavage day 3, 5, 7, analysed day 12.
[4] abbreviates: 4 mg/kg gavage day 7, 9, 11, analysed day 12.

SMILES strings stand for the structures.

Take `CC1(C)CCC(C)(C)c2cc(C3(c4ccc5cc(C(=O)O)ccc5c4)SCCS3)ccc21` [MM11253]: the “pSmad1/5/8 levels (immunoblot)” value in experiment [1] was “significantly enhanced”. For the same compound, in experiment [2], the “biological activities in an ectopic bone formation model” value was “proven biological activities” and the “ectopic bone formation (μCT, BV/TV)” value is reported as “significantly increased the amount of detectable bone”.

Turning to `COCCOCOc1cc2ccc(-c3ccc(C(=O)O)cc3)cc2cc1C12CC3CC(CC(C3)C1)C2` [CD2665], the “pSmad1/5/8 levels (immunoblot)” value in experiment [1] is given as “significantly enhanced”. Moreover, the “amount of cartilage in ectopic masses (Alcian blue)” value in experiment [2] (4 mg/kg gavage day 3, 5, 7, analysed day 7) was “significantly higher amount of cartilage than controls”. Besides, in experiment [2] (setting [3]), the “area of cartilage in ectopic masses (Alcian blue)” value is given as “still more abundant in treated than control samples” and the “mineralized tissue volume vs control (μCT)” value is recorded as “about 2 fold”. In experiment [2] (setting [4]), the “amount of mineralized tissue vs control” value was “not significant” and the “cartilaginous tissue in ectopic masses” value is on record as “more cartilaginous tissue”. Also, in experiment [2] (4 mg/kg gavage day 7, 9, 11, analysed day 17), the “volume of bone vs control” value is given as “significantly larger volume of bone than controls”. Further, in experiment [2], the “biological activities in an ectopic bone formation model” value was “proven biological activities” and the “ectopic bone formation (μCT, BV/TV)” value is “significantly increased the amount of detectable bone”.
